In one series the test system is Daudi cells. Briefly: Inhibition of human Daudi lymphoma cell proliferation (Cell-Titer Glo). The series is classed as cell-based. The following applies: Homo sapiens, 72 h, 3 days incubation, read-out: Anti-Proliferative Activity Against Daudi cells IC50. In short, it runs like this:
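Daudi cells in RPMI 1640 with 10% FBS were seeded and grown 24 h, then exposed for 3 days (37 °C, 5% CO2) to 10-point 3-fold serial dilutions at 0.25% final DMSO. Viability was read by CellTiter-Glo ATP luminescence, and IC50 was fitted from % inhibition against top/bottom controls.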

For a further series, the system named is WI-38 cells. Briefly: Inhibition of human WI-38 embryonic lung cell proliferation (Cell-Titer Glo). The series is classed as cell-based. The following applies: Homo sapiens, 72 h, 3 days incubation, read-out: Anti-Proliferative Activity Against WI-38 cells IC50. Here is the method: Introduction of the experimental principle: After the RAD51 inhibitor to be tested was co-incubated with human embryonic lung cells for a period of time, the influence of the test compound on cell proliferation was measured by a method for counting cell proliferation based on the quantitative measurement of intracellular ATP content.
Materials and Cells: WI-38 cells were purchased from ATCC; fetal bovine serum, 1640 medium and penicillin-streptomycin were purchased from Gibco Inc. (U.S.), 96-well plates were purchased from Corning Inc. (U.S.), and Cell-Titer Glo reagent was purchased from Promega Corporation (U.S.).
Cell culture: WI-38 cells were cultured in an EMEM culture medium containing 10% fetal bovine serum and 1% penicillin-streptomycin at 37° C. in an atmosphere containing 5% CO2. Cells in logarithmic growth phase could be used for experiments.
Assay of cell proliferation and viability: Cell-Titer Glo reagent was used to measure the inhibitory activities of the compounds on the proliferation of WI-38 cell strain. The concentration of cells was adjusted, and the cells were seeded in a 96-well plate and cultured at 37° C. in an atmosphere containing 5% CO2 for 24 hours. The powder of the compound was dissolved in 100% DMSO to form a 10 mM solution. 10 μl of the solution of the compound was aspirated and transferred into a 96-well compound plate containing 20 μl of DMSO solution in each well for 3-fold dilution and was then formulated to 10 serial dilutions. Thereafter, 2 μl of the solution of the compound was aspirated from the corresponding well and added correspondingly into a 96-well intermediate compound dilution plate containing 78 μl of complete culture medium in each well. The resultant was mixed well, and the plate was centrifuged at 1000 rpm for 1 minute. Finally, 10 μl of the solution of the compound was aspirated from the corresponding well of the 96-well intermediate compound dilution plate, and transferred into the corresponding well of the cell culture plate containing 90 μl of complete culture medium. The final concentration of DMSO was 0.25%. After the addition of the compound, the cells were continued to be incubated for 3 days at 37° C. in an atmosphere containing 5% CO2. Cell-Titer Glo reagent was added to measure cell viability.
% Compound inhibition was calculated and IC50 of the compound was fitted;
% Compound inhibition=1−100%×(Signal−Bottom)/(Top−Bottom)

A short description of series [1]: Metabolic stability in liver microsomes (human). Format: in vitro ADME. To be noted: pH 7.4; Human being liver microsomes 0.5 mg/mL, compound 1 μM, NADPH 1 mM, 37° C. Here is the method: (§1) 1. Source of liver microsomes: human liver microsomes (Corning 452117), CD-1 mouse liver microsomes (XENOTECH M1000)
(§2) 1. Formulation of 100 mM phosphate buffer solution (PBS): 7.098 g of Na2HPO4 was weighed and ultrasonically dissolved in 500 mL of pure water to form Solution A. 3.400 g of KH2PO4 was weighed and ultrasonically dissolved in 250 mL of pure water to form Solution B. Solution A was placed in a stirrer and Solution B was slowly added until the pH value reached 7.4, thus formulating 100 mM PBS buffer solution.
(§3) The reaction system was formulated according to Table 3 below.
(§4) 3. The reaction system was placed in a water bath at 37° C. and pre-incubated for 10 minutes. 40 μL of 10 mM NADPH solution (NADPH was dissolved in 100 mM phosphate buffer solution) was added into the reaction system, and the final concentration of NADPH was 1 mM. 40 μL of Phosphate buffer solution was used instead of the NADPH solution as a negative control. The negative control was used to rule out the influence caused by the chemical stability of the compounds per se.
(§5) 4. The reaction system was added with 4 μL of 100 μM the compound of the present disclosure and Verapamil (the positive control compound) (DMSO as the vehicle), so that the reaction was initiated. The final concentration of the compound was 1 μM.
(§6) 5. At 0.5, 15, 30, 45 and 60 minutes, after being well mixed in a vortex oscillator, 50 μL of the incubated samples were taken out respectively, and the reaction was terminated with ice acetonitrile (4-fold) containing an internal standard. The samples were centrifuged at 3220 g for 45 minutes. After the centrifugation, 90 μL of the supernatants were transferred to a sample plate and mixed well with 90 μL of ultrapure water for LC-MS/MS analysis.
(§7) All data were calculated by Microsoft Excel software. Peak areas were determined from the extracted ion chromatograms. The in-vitro half-life (t1/2) of the parent drug was determined by the linear fitting of the natural logarithm of the elimination percentage of the parent drug versus time.
(§8) The in-vitro half-life (t1/2) was calculated from the slope: […]
A general note: Microsomes from liver hold many membrane-bound enzymes, among them those of drug oxidation.

Series [2] in a line: Metabolic stability in liver microsomes (CD-1 mouse). Format: in vitro ADME. To be noted: pH 7.4; CD-1 mouse liver microsomes 0.5 mg/mL, compound 1 μM, NADPH 1 mM, 37° C. As for the experimental part:
as §1, §2, §3, §4, §5, §6, §7, §8

A short description of series [3]: Pharmacokinetic experiment in mouse. Format: in vivo. To be noted: female CB17-SCID mice, oral dose 25 mg/kg. From the text: CB17-SCID mice were purchased from Beijing Vital River Laboratory Animal Technology Co., Ltd.
DMSO, HP-β-CD (hydroxypropyl-β-cyclodextrin), PEG400 (polyethylene glycol 400), and Vitamin E TPGS (D-α-tocopherol polyethylene glycol 1000 succinate) were purchased from Sigma.
Six female CB17-SCID mice (20 g to 30 g, aged 4 to 6 weeks) were divided randomly into two groups, with 3 mice in each group. In Group 1, the compound in a vehicle of an aqueous solution containing 5% dimethyl sulfoxide and 95% hydroxypropyl-β-cyclodextrin (10%, w/v) was administered by intravenous injection via tail vein. In Group 2, a corresponding dose of the compound in a vehicle of an aqueous solution containing 30% polyethylene glycol 400 and 70% D-α-tocopherol polyethylene glycol 1000 succinate (10%, w/v) was orally administered. The animals were fed normally with food and water before experiment. The mice in each group underwent intravenous blood collection before administration and at 0.083 h (intravenous injection group only), 0.25 h, 0.5 h, 1 h, 2 h, 4 h, 6 h, 8 h, and 24 h after administration. The collected whole blood samples were placed in K2EDTA anticoagulation tubes and centrifuged for 5 min (4000 rpm, 4° C.) to collect the plasma for testing.
10 μL of the mouse plasma sample was taken, and 150 μL of acetonitrile solvent (containing the internal standard compound) was added to precipitate protein. After the resultant was vortexed for 0.5 min and centrifuged (4700 rpm, 4° C.) for 15 min, the supernatant was subjected to 2-fold dilution with water containing 0.05% (v/v) FA and was then subjected to quantitative measurement in LC-MS/MS system (AB Sciex Triple Quad 6500+). A calibration standard curve was prepared in CB17-SCID mouse plasma along with quality control samples to determine the plasma concentration. As for a 10× diluted sample, 2 μL of sample was taken and 18 μL of blank plasma was added. After being vortexed for 0.5 min, the mixture was added with 300 μL of acetonitrile solvent (containing the internal standard compound) so as to precipitate protein. The rest of the processing steps were the same as those for the undiluted samples.

The term IC50 denotes the midpoint of a concentration-inhibition curve. Usually half-life stands for how long it takes for the measured level to halve. For `CC(C)OC(=O)NC1CCC(c2ncc(-c3ccc(Nc4cnn(C5COC5)c4)cc3S(=O)(=O)C3CC3)s2)CC1` (stereo not drawn) [Example 86, isopropyl trans-N-[4-[5-[2-cyclopropylsulfonyl]-4-[[1-(oxetan-3-yl)pyrazol-4-yl]amino]phenyl]thiazol-2-yl]cyclohexyl]carbamate], the IC50 was 3 nM in the series with Daudi cells and over 25000 nM in the series with WI-38 cells. Also, the half-life at 1 μM was found to be 1.78 h in series [1] and 1.4 h in series [2].
For `CC(C)OC(=O)N[C@H]1CC[C@H](c2ncc(-c3ccc(Nc4cc(CO)[nH]n4)cc3S(=O)(=O)C3CC3)s2)CC1` [Example 72, isopropyl trans-(4-(5-(2-(cyclopropylsulfonyl)-4-((5-(hydroxymethyl)-1H-pyrazol-3-yl)amino)phenyl)thiazol-2-yl)cyclohexyl)carbamate], in that order: 4 nM, 20000 nM, 7.03 h and 4.52 h.
Regarding `CC(C)OC(=O)NC1CCC(c2ncc(-c3ccc(Nc4cnn(C)c4)cc3S(=O)(=O)C3CC3)s2)CC1` (stereo not drawn) [Example 70, isopropyl trans-N-[4-[5-[2-cyclopropylsulfonyl]-4-[(1-methylpyrazol-4-yl)amino]phenyl]thiazol-2-yl]cyclohexyl]carbamate], the IC50 with Daudi cells is 8 nM. The IC50 in the series on WI-38 cells was 21000 nM. In series [3], the “Drug Exposure” value worked out at 137.892 µg·h/mL, the “Max. Drug Conc.” value stood at 32840 ng/mL and the “Peak Time of Drug Conc.” value was determined as 0.75 h. In series [3] (mouse, plasma, read-out: Drug Elimination Half-life (converted)), the half-life was 5 h.
With `CC(C)OC(=O)NC1CCC(c2ncc(-c3ccc(Nc4cnn(CCF)c4)cc3S(=O)(=O)C3CC3)s2)CC1` (stereo not drawn) [Example 85, isopropyl trans-N-[4-[5-[2-cyclopropylsulfonyl]-4-[[1-(2-fluoroethyl)pyrazol-4-yl]amino]phenyl]thiazol-2-yl]cyclohexyl]carbamate], the IC50 was 0.6 nM with Daudi cells and 17000 nM in the series with WI-38 cells. The half-life at 1 μM in series [1] turned out to be 1.37 h; in series [2] it was 0.85 h.
On to `CC(C)OC(=O)NC1CCC(c2ncc(-c3ccc(Nc4cnn(CCO)c4)cc3S(=O)(=O)C3CC3)s2)CC1` (stereo not drawn) [Example 84, isopropyl trans-N-[4-[5-[2-cyclopropylsulfonyl]-4-[[1-(2-(hydroxyethyl)pyrazol-4-yl]amino]phenyl]thiazol-2-yl]cyclohexyl]carbamate], for which the figures for the IC50 with Daudi cells and with WI-38 cells were 7 nM and over 25000 nM, respectively. Besides, the half-life at 1 μM was 1.12 h in series [1] and 1.87 h in series [2].
As to `Cc1cc(Nc2ccc(-c3cnc([C@H]4CC[C@H](NC(=O)OC(C)C)CC4)s3)c(S(=N)(=O)C3CCC3)c2)n[nH]1` (stereo partly drawn) [Example 101, isopropyl trans-(4-(5-(2-(cyclobutanesulfonimidoyl)-4-((5-methyl-1H-pyrazol-3-yl)amino)phenyl]thiazol-2-yl)cyclohexyl)carbamate], the IC50 with Daudi cells was 28 nM; in the series on WI-38 cells it was over 25000 nM.
For `Cc1cc(Nc2ccc(-c3cnc([C@H]4CC[C@H](NC(=O)OC(C)C)CC4)s3)c(S(=O)(=O)NC(C)(C)C)c2)n[nH]1` [Example 28, isopropyl trans-(4-(5-(2-(N-(tert-butyl)sulfamoyl)-4-((5-methyl-1H-pyrazol-3-yl)amino)phenyl)thiazol-2-yl)cyclohexyl)carbamate], in that order: 48 nM and 15000 nM.
